# Reference: publication PMC6883173 (Nature, 2019)
# B1: PurF from E. coli (PurF^EC), glutamine amidophosphoribosyltransferase (enzyme, UniProt P0AG16 1-505, looked up)
# chain: MCGIVGIAGVMPVNQSIYDALTVLQHRGQDAAGIITIDANNCFRLRKANGLVSDVFEARHMQRLQGNMGIGHVRYPTAGSSSASEAQPFYVNSPYGITLAHNGNLTNAHELRKKLFEEKRRHINTTSDSEILLNIFASELDNFRHYPLEADNIFAAIAATNRLIRGAYACVAMIIGHGMVAFRDPNGIRPLVLGKRDIDENRTEYMVASESVALDTLGFDFLRDVAPGEAIYITEEGQLFTRQCADNPVSNPCLFEYVYFARPDSFIDKISVYSARVNMGTKLGEKIAREWEDLDIDVVIPIPETSCDIALEIARILGKPYRQGFVKNRYVGRTFIMPGQQLRRKSVRRKLNANRAEFRDKNVLLVDDSIVRGTTSEQIIEMAREAGAKKVYLASAAPEIRFPNVYGIDMPSATELIAHGREVDEIRQIIGADGLIFQDLNDLIDAVRAENPDIQQFECSVFNGVYVTKDVDQGYLDFLDTLRNDDAKAVQRQNEVENLEMHNEG
# Assays:
# SpoT1–387 = SpoT1–387 (Pseudomonas aeruginosa, UniProt Q9HTM0); experiment: NDK/PK/LDH coupled NADH assay; assay type: biochemical
# PurF^EC = PurF^EC (Escherichia coli, UniProt P0AG16); experiment: coupled PurD/PK/LDH NADH assay; assay type: biochemical; settings: 30 °C; 50 nM PurF, 5 mM glutamine, 1 mM pRpp-Mg, 10 mM MgCl2, pH 7.4
# crystal structure = target: the molecule itself; experiment: crystal structure
molecule,measurement,setting,value
Nc1ncnc2c1ncn2[C@@H]1O[C@H](COP(=O)(O)OP(=O)(O)O)[C@@H](OP(=O)(O)OP(=O)(O)O)[C@H]1O [ppApp],NDK/PK/LDH coupled NADH assay (A340),"SpoT1–387; 1 mM ppApp, otherwise same",ppGpp-hydrolyzing domain of SpoT was substantially less active on ppApp than ppGpp in vitro
same,activity versus concentration,PurF^EC,Changes to the activity of PurF^EC in the presence of indicated concentrations of ppGpp or ppApp
Nc1nc2c(ncn2[C@@H]2O[C@H](COP(=O)(O)OP(=O)(O)O)[C@@H](OP(=O)(O)OP(=O)(O)O)[C@H]2O)c(=O)[nH]1 [ppGpp],NDK/PK/LDH coupled NADH assay (A340),"SpoT1–387; 1 mM ppGpp, 10 uM enzyme, 5 mM MnCl2, 2 mM MgCl2, pH 7.4, 30 °C",ppGpp-hydrolyzing domain of SpoT was substantially less active on ppApp than ppGpp in vitro
B1,stoichiometry N,crystal structure,4
